Test results as given in patent US20040156869A1, “2-substituted quinazolin-4-ylamine analogues” (Neurogen Corporation, priority 2002, published 2004).

Target: human capsaicin receptor (VR1) (Homo sapiens, UniProt Q8NER1)
Assay: Capsaicin receptor binding assay ([3H]RTX competition, VR1-transfected HEK293 membranes)

Chain of human capsaicin receptor (VR1) (Q8NER1 whole entry): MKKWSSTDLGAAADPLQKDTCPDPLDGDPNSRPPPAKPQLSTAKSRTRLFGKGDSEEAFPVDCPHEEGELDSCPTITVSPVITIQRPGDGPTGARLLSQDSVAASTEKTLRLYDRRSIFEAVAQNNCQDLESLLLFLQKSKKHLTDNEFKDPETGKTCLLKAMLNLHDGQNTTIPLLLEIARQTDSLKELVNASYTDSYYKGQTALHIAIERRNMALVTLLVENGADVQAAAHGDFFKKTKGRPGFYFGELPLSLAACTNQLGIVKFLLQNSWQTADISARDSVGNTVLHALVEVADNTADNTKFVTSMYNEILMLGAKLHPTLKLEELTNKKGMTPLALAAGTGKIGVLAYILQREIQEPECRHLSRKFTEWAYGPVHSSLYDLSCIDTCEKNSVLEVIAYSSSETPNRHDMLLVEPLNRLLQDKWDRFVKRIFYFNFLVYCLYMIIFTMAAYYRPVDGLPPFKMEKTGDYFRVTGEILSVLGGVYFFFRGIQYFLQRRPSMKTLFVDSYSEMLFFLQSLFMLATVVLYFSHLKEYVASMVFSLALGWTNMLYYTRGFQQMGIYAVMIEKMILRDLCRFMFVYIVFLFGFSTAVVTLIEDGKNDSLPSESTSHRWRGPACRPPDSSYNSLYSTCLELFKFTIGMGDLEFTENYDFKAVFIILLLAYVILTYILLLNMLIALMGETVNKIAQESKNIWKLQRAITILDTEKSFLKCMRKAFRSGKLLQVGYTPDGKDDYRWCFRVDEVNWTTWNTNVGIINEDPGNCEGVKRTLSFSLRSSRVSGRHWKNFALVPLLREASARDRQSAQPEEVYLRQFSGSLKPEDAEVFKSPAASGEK

| Ki [nM] | SMILES |
| --- | --- |
| < 1000 | COCCc1nc(Nc2ccc(C(C)(C)C)cc2)c2ccc(-c3ncccc3C(F)(F)F)cc2n1 [Compound 47, (4-tert-Butyl-phenyl)-[2-(2-methoxy-ethyl)-7-(3-trifluoromethyl-pyridin-2-yl)-quinazolin-4-yl]-amine] |
| < 1000 | COCCc1nc(Nc2ccc(C(C)C)cc2)c2ccc(-c3ncccc3C(F)(F)F)cc2n1 [Compound 48, (4-Isopropyl-phenyl)-[2-(2-methoxy-ethyl)-7-(3-trifluoromethyl-pyridin-2-yl)-quinazolin-4-yl]-amine] |
| < 1000 | COCCc1nc(Nc2ccc(C(C)(C)C)nc2)c2ccc(-c3ncccc3C(F)(F)F)cc2n1 [Compound 49, (6-tert-Butyl-pyridin-3-yl)-[2-(2-methoxy-ethyl)-7-(3-trifluoromethyl-pyridin-2-yl)-quinazolin-4-yl]-amine] |
| < 1000 | COCc1nc(Nc2ccc(C(C)(C)C)cc2)c2ncc(-c3ncccc3C(F)(F)F)cc2n1 [Compound 50, (4-tert-Butyl-phenyl)-[2-methoxymethyl-7-(3-trifluoromethyl-pyridin-2-yl)-pyrido[3,2-d]pyrimidin-4-yl]-amine] |
| < 1000 | COCc1nc(Nc2ccc(C(C)C)cc2)c2ncc(-c3ncccc3C(F)(F)F)cc2n1 [Compound 51, (4-Isopropyl-phenyl)-[2-methoxymethyl-7-(3-trifluoromethyl-pyridin-2-yl)-pyrido[3,2-d]pyrimidin-4-yl]-amine] |
| < 1000 | CCc1ccc(Nc2nc(COC)nc3cc(-c4ncccc4C(F)(F)F)cnc23)cc1 [Compound 52, (4-Ethyl-phenyl)-[2-methoxymethyl-7-(3-trifluoromethyl-pyridin-2-yl)-pyrido[3,2-d]pyrimidin-4-yl]-amine] |
| < 1000 | COCc1nc(Nc2ccc(C(F)(F)F)nc2)c2ncc(-c3ncccc3C(F)(F)F)cc2n1 [Compound 53, [2-Methoxymethyl-7-(3-trifluoromethyl-pyridin-2-yl)-pyrido[3,2-d]pyrimidin-4-yl]-(6-trifluoromethyl-pyridin-3-yl)-amine] |
| < 1000 | COCc1nc(Nc2ccc(C(C)=O)cc2)c2ncc(-c3ncccc3C(F)(F)F)cc2n1 [Compound 54, 1-{4-[2-Methoxymethyl-7-(3-trifluoromethyl-pyridin-2-yl)-pyrido[3,2-d]pyrimidin-4-ylamino]-phenyl}-ethanone] |
| < 1000 | COCc1nc(Nc2ccc(C#N)cc2)c2ncc(-c3ncccc3C(F)(F)F)cc2n1 [Compound 55, 4-[2-Methoxymethyl-7-(3-trifluoromethyl-pyridin-2-yl)-pyrido[3,2-d]pyrimidin-4-ylamino]-benzonitrile] |
| < 1000 | COCc1nc(Nc2ccc(C3CCCCC3)cc2)c2ncc(-c3ncccc3C(F)(F)F)cc2n1 [Compound 56, (4-Cyclohexyl-phenyl)-[2-methoxymethyl-7-(3-trifluoromethyl-pyridin-2-yl)-pyrido[3,2-d]pyrimidin-4-yl]-amine] |
| < 1000 | CCCC(=O)c1ccc(Nc2nc(COC)nc3cc(-c4ncccc4C(F)(F)F)cnc23)cc1 [Compound 57, 1-{4-[2-Methoxymethyl-7-(3-trifluoromethyl-pyridin-2-yl)-pyrido[3,2-d]pyrimidin-4-ylamino]-phenyl}-butan-1-one] |
| < 1000 | COCc1nc(Nc2ccc(C(C)(C)COC)cc2)c2ncc(-c3ncccc3C(F)(F)F)cc2n1 [Compound 58, [4-(2-Methoxy-1,1-dimethyl-ethyl)-phenyl]-[2-methoxymethyl-7-(3-trifluoromethyl-pyridin-2-yl)-pyrido[3,2-d]pyrimidin-4-yl]-amine] |
| < 1000 | COCc1nc(Nc2ccc(C(C)(C)C)cc2)c2ccc(-c3ncccc3Cl)nc2n1 [Compound 59, (4-tert-Butyl-phenyl)-[7-(3-chloro-pyridin-2-yl)-2-methoxymethyl-pyrido[2,3-d]pyrimidin-4-yl]-amine] |
| < 1000 | COCc1nc(Nc2ccc(C(C)C)cc2)c2ccc(-c3ncccc3Cl)nc2n1 [Compound 60, [7-(3-Chloro-pyridin-2-yl)-2-methoxymethyl-pyrido[2,3-d]pyrimidin-4-yl]-(4-isopropyl-phenyl)-amine] |
| < 1000 | COCc1nc(Nc2ccc(C(C)(C)COC)cc2)c2ccc(-c3ncccc3Cl)nc2n1 [Compound 61, [7-(3-Chloro-pyridin-2-yl)-2-methoxymethyl-pyrido[2,3-d]pyrimidin-4-yl]-[4-(2-methoxy-1,1-dimethyl-ethyl)-phenyl]-amine] |
| < 1000 | COCc1nc(Nc2ccc(C(C)(C)C#N)cc2)c2ccc(-c3ncccc3Cl)nc2n1 [Compound 62, 2-{4-[7-(3-Chloro-pyridin-2-yl)-2-methoxymethyl-pyrido[2,3-d]pyrimidin-4-ylamino]-phenyl}-2-methyl-propionitrile] |
| < 1000 | CCC(C)c1ccc(Nc2nc(COC)nc3nc(-c4ncccc4Cl)ccc23)cc1 (stereo not drawn) [Compound 63, (4-sec-Butyl-phenyl)-[7-(3-chloro-pyridin-2-yl)-2-methoxymethyl-pyrido[2,3-d]pyrimidin-4-yl]-amine] |
| < 1000 | COCc1nc(Nc2ccc(C(C)(C)C)cc2)c2ncc(-c3ncccc3Cl)cc2n1 [Compound 65, (4-tert-Butyl-phenyl)-[7-(3-chloro-pyridin-2-yl)-2-methoxymethyl-pyrido[3,2-d]pyrimidin-4-yl]-amine] |

| Ki [nM] | SMILES |
| --- | --- |
| < 1000 | COCc1nc(Nc2ccc(C(C)C)cc2)c2ncc(-c3ncccc3Cl)cc2n1 [Compound 66, [7-(3-Chloro-pyridin-2-yl)-2-methoxymethyl-pyrido[3,2-d]pyrimidin-4-yl]-(4-isopropyl-phenyl)-amine] |
| < 1000 | COCc1nc(Nc2ccc(C(C)(C)C)nc2)c2ccc(-c3ncccc3Cl)cc2n1 [Compound 68, (6-tert-Butyl-pyridin-3-yl)-[7-(3-chloro-pyridin-2-yl)-2-methoxymethyl-quinazolin-4-yl]-amine] |
| < 1000 | COCc1nc(Nc2ccc(C(C)C)cc2)c2ccc(-c3ncccc3Cl)cc2n1 [Compound 69, [7-(3-Chloro-pyridin-2-yl)-2-methoxymethyl-quinazolin-4-yl]-(4-isopropyl-phenyl)-amine] |
| < 1000 | COCc1nc(Nc2ccc(C(F)(F)F)cc2)c2ccc(-c3ncccc3Cl)cc2n1 [Compound 70, [7-(3-Chloro-pyridin-2-yl)-2-methoxymethyl-quinazolin-4-yl]-(4-trifluoromethyl-phenyl)-amine] |
| < 1000 | COCc1nc(Nc2ccc(C(C)(C)C)cc2)c2ccc(-c3ncccc3Cl)cc2n1 [Compound 71, (4-tert-Butyl-phenyl)-[7-(3-chloro-pyridin-2-yl)-2-methoxymethyl-quinazolin-4-yl]-amine] |
| < 1000 | COCc1nc(Nc2ccc(C(C)C)cc2)c2ccc(-c3ncccc3C(F)(F)F)cc2n1 [Compound 72, (4-Isopropyl-phenyl)-[2-methoxymethyl-7-(3-trifluoromethyl-pyridin-2-yl)-quinazolin-4-yl]-amine] |
| < 1000 | COCc1nc(Nc2ccc(C(C)(C)C)cc2)c2ccc(-c3ncccc3C(F)(F)F)cc2n1 [Compound 73, (4-tert-Butyl-phenyl)-[2-methoxymethyl-7-(3-trifluoromethyl-pyridin-2-yl)-quinazolin-4-yl]-amine] |
| < 1000 | COCc1nc(Nc2ccc(C(C)(C)C)nc2)c2ccc(-c3ncccc3C(F)(F)F)cc2n1 [Compound 74, (6-tert-Butyl-pyridin-3-yl)-[2-methoxymethyl-7-(3-trifluoromethyl-pyridin-2-yl)-quinazolin-4-yl]-amine] |
| < 1000 | COCCOCc1nc(Nc2ccc(C(C)(C)C)cc2)c2ccc(-c3ncccc3Cl)nc2n1 [Compound 75, (4-tert-Butyl-phenyl)-[7-(3-chloro-pyridin-2-yl)-2-(2-methoxy-ethoxymethyl)-pyrido[2,3-d]pyrimidin-4-yl]-amine] |
| < 1000 | COCCOCc1nc(Nc2ccc(C(F)(F)F)cc2)c2ccc(-c3ncccc3Cl)nc2n1 [Compound 76, [7-(3-Chloro-pyridin-2-yl)-2-(2-methoxy-ethoxymethyl)-pyrido[2,3-d]pyrimidin-4-yl]-(4-trifluoromethyl-phenyl)-amine] |
| < 1000 | COCCOCc1nc(Nc2ccc(C(C)C)cc2)c2ccc(-c3ncccc3Cl)nc2n1 [Compound 77, [7-(3-Chloro-pyridin-2-yl)-2-(2-methoxy-ethoxymethyl)-pyrido[2,3-d]pyrimidin-4-yl]-(4-isopropyl-phenyl)-amine] |
| < 1000 | COCc1nc(Nc2ccc(C(C)C)cc2)c2ccc(-c3ncccc3C)cc2n1 [Compound 78, (4-Isopropyl-phenyl)-[2-methoxymethyl-7-(3-methyl-pyridin-2-yl)-quinazolin-4yl]-amine] |
| < 1000 | CCOCc1nc(Nc2ccc(C(C)(C)C)cc2)c2ccc(-c3ncccc3Cl)cc2n1 [Compound 79, (4-tert-Butyl-phenyl)-[7-(3-chloro-pyridin-2-yl)-2-ethoxymethyl-quinazolin-4-yl]-amine] |
| < 1000 | CCOCc1nc(Nc2ccc(C(C)C)cc2)c2ccc(-c3ncccc3Cl)cc2n1 [Compound 80, [7-(3-Chloro-pyridin-2-yl)-2-ethoxymethyl-quinazolin-4-yl]-(4-isopropyl-phenyl)-amine] |
| < 1000 | CCOCc1nc(Nc2ccc(C(F)(F)F)cc2)c2ccc(-c3ncccc3Cl)cc2n1 [Compound 81, [7-(3-Chloro-pyridin-2-yl)-2-ethoxymethyl-quinazolin-4-yl]-(4-trifluoromethyl-phenyl)-amine] |
| < 1000 | CCOCc1nc(Nc2ccc(C(C)(C)C)nc2)c2ccc(-c3ncccc3Cl)cc2n1 [Compound 82, (6-tert-Butyl-pyridin-3-yl)-[7-(3-chloro-pyridin-2-yl)-2-ethoxymethyl-quinazolin-4-yl]-amine] |
| < 1000 | COCCOCc1nc(Nc2ccc(C(C)(C)C#N)cc2)c2ccc(-c3ncccc3Cl)nc2n1 [Compound 83, 2-{4-[7-(3-Chloro-pyridin-2-yl)-2-(2-methoxy-ethoxymethyl)-pyrido[2,3-d]pyrimidin-4-ylamino]-phenyl}-2-methyl-propionitrile] |
| < 1000 | CCC(C)c1ccc(Nc2nc(COCCOC)nc3nc(-c4ncccc4Cl)ccc23)cc1 (stereo not drawn) [Compound 84, (4-sec-Butyl-phenyl)-[7-(3-chloro-pyridin-2-yl)-2-(2-methoxy-ethoxymethyl)-pyrido[2,3-d]pyrimidin-4-yl]-amine] |
